The term EC50 denotes the concentration that produces a half-maximal response. Read a low EC50 as a more potent agent.

Bounds are passed on as bounds.

Sequence of STING (Q86WV6 whole entry R71H/G230A/H232R/R293Q): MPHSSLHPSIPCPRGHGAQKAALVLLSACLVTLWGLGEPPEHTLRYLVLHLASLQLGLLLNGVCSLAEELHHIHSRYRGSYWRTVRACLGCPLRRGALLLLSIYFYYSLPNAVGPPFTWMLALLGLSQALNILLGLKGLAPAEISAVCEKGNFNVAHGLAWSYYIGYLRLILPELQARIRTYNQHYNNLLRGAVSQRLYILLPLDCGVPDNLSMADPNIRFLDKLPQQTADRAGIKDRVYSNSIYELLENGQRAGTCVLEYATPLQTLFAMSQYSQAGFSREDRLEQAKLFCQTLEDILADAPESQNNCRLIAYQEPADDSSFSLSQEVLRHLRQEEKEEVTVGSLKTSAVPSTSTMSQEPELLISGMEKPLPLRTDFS

One assay has as its target STING (Homo sapiens, UniProt Q86WV6, G230A/H232R/R293Q/R71H). Description: STING reporter assay: THP1-Dual KO-IFNAR2 cells stimulated with 2′3′cGAMP, luciferase reporter activity. It is filed as cell-based. To be noted: 15 μM 2′3′cGAMP, 24h, class symbols. As for the experimental part:
STING pathway activation by the compounds described herein were measured using THP1-Dual™ cells (KO-IFNAR2).
THP1-Dual™ KO-IFNAR2 Cells (obtained from invivogen) were maintained in RPMI, 10% FCS, 5 ml P/S, 2 mM L-glut, 10 mM Hepes, and 1 mM sodium pyruvate. Compounds were spotted in empty 384 well tissue culture plates (Greiner 781182) by Echo for a final concentration of 0.0017-100 μM. Cells were plated into the TC plates at 40 μL per well, 2×10E6 cells/mL. For activation with STING ligand, 2′3′cGAMP (MW 718.38, obtained from Invivogen), was prepared in Optimem media.
The following solutions were prepared for each 1×384 plate: • Solution A: 2 mL Optimem with one of the following stimuli: • 60 uL of 10 mM 2′3′cGAMP ->150 μM stock • Solution B: 2 mL Optimem with 60 μL Lipofectamine 2000->Incubate 5 min at RT
2 mL of solution A and 2 ml Solution B was mixed and incubated for 20 min at room temperature (RT). 20 uL of transfection solution (A+B) was added on top of the plated cells, with a final 2′3′cGAMP concentration of 15 μM. The plates were then centrifuged immediately at 340 g for 1 minute, after which they were incubated at 37° C., 5% CO2, >98% humidity for 24h. Luciferase reporter activity was then measured. EC50 values were calculated by using standard methods known in the art.
Luciferase reporter assay: 10 μL of supernatant from the assay was transferred to white 384-plate with flat bottom and squared wells. One pouch of QUANTI-Luc™ Plus was dissolved in 25 mL of water. 100 μL of QLC Stabilizer per 25 mL of QUANTI-Luc™ Plus solution was added. 50 μL of QUANTI-Luc™ Plus/QLC solution per well is then added. Luminescence is measured on a Platereader (e.g., Spectramax I3X (Molecular Devices GF3637001)).
Luciferase reporter activity was then measured. EC50 values were calculated by using standard methods known in the art.
(In general: Reporter assays use an easily measured gene product as a stand-in for the process of interest.)
`CC[C@H](NC(=O)Nc1ccc2cc[nH]c2c1)c1ccccc1` [Compound 222] gave an EC50 of 5000 to 100000 nM.

`Cc1ccccc1CNC(=O)Nc1ccc2cc[nH]c2c1` [Compound 224] showed an EC50 of 1000 to 5000 nM.

In turn, `Cc1cccc(CNC(=O)Nc2ccc3cc[nH]c3c2)c1` [Compound 225] registered an EC50 of 5000 to 100000 nM.

In turn, `O=C(Nc1ccc(Cl)c(F)c1)Nc1ccc2cc[nH]c2c1` [Compound 226] displayed a 50% effective concentration (EC50) of 200 to 1000 nM.

On to `Cc1cc(NC(=O)Nc2ccc3cc[nH]c3c2)ccc1C#N` [Compound 227], for which the EC50 fell in the range of 200 to 1000 nM.

Molecule `O=C(Nc1cccc(OC(F)F)c1)Nc1ccc2cc[nH]c2c1` [Compound 228] registered an EC50 of 1000 to 5000 nM.

`O=C(Nc1cccc(S(F)(F)(F)(F)F)c1)Nc1ccc2cc[nH]c2c1` [Compound 233] displayed a concentration giving a half-maximal response (EC50) of 200 to 1000 nM.

For `CC(C)c1ccc(NC(=O)Nc2ccc3cc[nH]c3c2)cc1` [Compound 234], the half-maximal effective concentration (EC50) was 200 to 1000 nM.

`CCCCCCCCCCCCCCCCNC(=O)Nc1ccc2cc[nH]c2c1` [Compound 235] yielded an EC50 of 200 to 1000 nM.

Turning to `CCCCCCCCCCCCCCNC(=O)Nc1ccc2cc[nH]c2c1` [Compound 236], the EC50 lay within 200 to 1000 nM.

For `CCCCCCCCc1ccc(NC(=O)Nc2ccc3cc[nH]c3c2)cc1` [Compound 237], the 50% effective concentration (EC50) fell in the range of 200 to 1000 nM.

`O=C(Nc1ccc(C2CC(F)(F)C2)c(F)c1)Nc1ccc2cc[nH]c2c1` [Compound 240] registered a concentration for a half-maximal effect (EC50) of 200 to 1000 nM.

In the case of `O=C(Nc1ccc(C(F)(F)F)cc1)Nc1ccc2c(F)c[nH]c2c1` [Compound 242, 3-(3-fluoro-1H-indol-6-yl)-1-[4-(trifluoromethyl)phenyl]urea], the EC50 was in the range of 200 to 1000 nM.

In turn, `O=C(Nc1ccc2cc[nH]c2c1)NC1CCC2(CCCCC2)OC1` (stereo not drawn) [Compound 243] yielded an EC50 of 5000 to 100000 nM.

As for `O=C(Nc1ccc(C(F)(F)F)c(Cl)c1)Nc1ccc2cc[nH]c2c1` [Compound 244], the EC50 lay within 200 to 1000 nM.

`N#Cc1cc(NC(=O)Nc2ccc(C(F)(F)F)cc2)cc2[nH]ccc12` [Compound 245] returned an EC50 of 40 to 200 nM.

`O=C(Nc1ccc(C(F)(F)F)cc1)Nc1cc(F)c2cc[nH]c2c1` [Compound 246] had a half-maximal effective concentration (EC50) of 200 to 1000 nM.

Take `O=C(Nc1ccc(N2CCC(F)(F)CC2)nc1)Nc1ccc2cc[nH]c2c1` [Compound 247]: the EC50 is 1000 to 5000 nM.

For `O=C(Nc1ccc(OC2CC(F)(F)C2)nc1)Nc1ccc2cc[nH]c2c1` [Compound 248], the concentration for a half-maximal effect (EC50) lay within 200 to 1000 nM.

`O=C(Nc1ccc2cc[nH]c2c1)Nc1ccc(N2CCC(F)(F)CC2)cn1` [Compound 249] returned a 50% effective concentration (EC50) of 1000 to 5000 nM.

As to `O=C(Nc1ccnc(C(F)(F)F)c1)Nc1ccc2cc[nH]c2c1` [Compound 250], the EC50 was in the range of 1000 to 5000 nM.

On to `O=C(Nc1ccc(C(F)(F)F)cc1)Nc1cc(Cl)c2cc[nH]c2c1` [Compound 251], for which the EC50 is 40 to 200 nM.

For the molecule `O=C(Nc1cc(F)cc(C(F)(F)F)c1)Nc1ccc2cc[nH]c2c1` [Compound 252], the EC50 was 40 to 200 nM.

Regarding `O=C(Nc1ccc(C(F)(F)F)c(F)c1)Nc1ccc2cc[nH]c2c1` [Compound 253], the EC50 was in the range of 40 to 200 nM.

`O=C(Nc1cc(Cl)cc(C(F)(F)F)c1)Nc1ccc2cc[nH]c2c1` [Compound 254] gave an EC50 of 200 to 1000 nM.

Staying with this assay, now noted: 15 μM 2′3′cGAMP, 24h, numeric bounds.
As for `CC(C)(C)n1cc(NC(=O)Nc2ccc3cc[nH]c3c2)cn1` [Compound 218], the concentration for a half-maximal effect (EC50) was > 30000 nM.

Take `O=C(NCc1cnccn1)Nc1ccc2cc[nH]c2c1` [Compound 219]: the concentration for a half-maximal effect (EC50) was > 30000 nM.

`O=C(Nc1ccc2cc[nH]c2c1)Nc1cnccn1` [Compound 220]: the EC50 is > 30000 nM.

As for `O=C(NCc1ccc(F)c(F)c1)Nc1ccc2cc[nH]c2c1` [Compound 221], the EC50 was > 30000 nM.

As to `Cc1ccc(CNC(=O)Nc2ccc3cc[nH]c3c2)cc1C` [Compound 223], the EC50 was > 30000 nM.

Regarding `CCc1ccccc1NC(=O)Nc1ccc2cc[nH]c2c1` [Compound 229], the EC50 was > 30000 nM.

In the case of `O=C(Nc1ccc2cc[nH]c2c1)Nc1ccccc1F` [Compound 230], the EC50 is > 30000 nM.

For `Cc1ccccc1NC(=O)Nc1ccc2cc[nH]c2c1` [Compound 231], the EC50 was > 30000 nM.

For the origin of these results see patent US20230092163A1, “COMPOUNDS AND COMPOSITIONS FOR TREATING CONDITIONS ASSOCIATED WITH STING ACTIVITY” (IFM Due, Inc., priority 2019, published 2023).
